Tested on: HUVEC (human umbilical vein endothelial cells), VEGF-induced proliferation
Assay: Cell proliferation inhibitory action test using a VEGF-induced HUVEC proliferation reaction evaluation system
Format: cell-based
Conditions: 20 μg/mL test compound solution, 5 μL per well, WST-8 three days after VEGF addition, absorbance at 450 nm, control 1.0% DMSO
Experimental: In order to find the usefulness of the compound of the present invention, a test for inhibitory effects of the compound of the present invention on cell proliferation was carried out using a VEGF-induced HUVEC proliferation reaction evaluation system (HUVEC: human umbilical vein endothelial cells), which is a method of evaluating antiangiogenic effects of drugs, and the antiangiogenic effects of the compounds were evaluated.
As one of the widely used methods of evaluating antiangiogenic effects of drugs, a cell proliferation inhibitory action test using a VEGF-induced HUVEC proliferation reaction evaluation system has been reported in Cancer Res., 59, 99-106 (1999). According to the method described in the above-mentioned document, a cell proliferation inhibitory action test of the compound of the present invention was carried out, and the cell proliferation inhibition rate was calculated. Then, the antiangiogenic effect of each of the compound of the present invention was evaluated using the obtained rate as an index.
(Preparation of Test Compound Solution)
Each test compound was dissolved in dimethyl sulfoxide (hereinafter abbreviated as DMSO), and the obtained solution was diluted with a commercially available phosphate buffer solution (hereinafter abbreviated as PBS), whereby a 20 μg/mL test compound solution was prepared.
(Preparation of HUVEC Suspension)
HUVEC was suspended in F12K medium containing 0.5% fetal bovine serum (hereinafter abbreviated as FBS), whereby a 2×10^4 cells/mL HUVEC suspension was prepared.
(Preparation of VEGF Solution)
VEGF was dissolved in PBS containing 0.1% bovine serum albumin, and the obtained solution was diluted with F12K medium containing 0.5% FBS, whereby a 400 ng/mL VEGF solution was prepared.
(Test Method and Measurement Method)
1) The HUVEC suspension was inoculated in an amount of 100 μL into each well of a 96-well plate coated with type I collagen (2×10^3 cells per well).
2) One day after the inoculation, the test compound solution was added in an amount of 5 μL per well.
3) One hour after the addition of the test compound solution, the VEGF solution was added in an amount of 5 μL per well.
4) Three days after the addition of the VEGF solution, WST-8 assay reagent (Dojin Chemical Co., Ltd.) was added in an amount of 10 μL per well.
5) After 3 hours, the above-mentioned plate was attached to an absorptiometer (Multilabel Counter ARVO), and an absorbance at 450 nm of suspension in each well (hereinafter referred to as a test compound suspension) was measured.
6) A test was carried out in the same manner as in the above 1) to 5) except that 1.0% DMSO was used instead of the test compound solution. The result was used as a control.
Incubation was carried out under conditions of 37° C., 5% carbon dioxide and […] in an incubator throughout the above-mentioned test steps.
(Calculation of Cell Proliferation Inhibition Rate)
The cell proliferation inhibition rate (%), which was used as an index of an antiangiogenic effect, was calculated using the following calculation equation. Cell proliferation inhibition rate (%)=100−{(Absorbance of test compound suspension−A)/(absorbance of control−A)}×100 (Calculation Equation) A: Absorbance of only cell suspension (cells+medium) (Test Results and Discussion)

SMILES	Cell proliferation inhibition rate (%)
Cc1cc(C)cc(NC(=O)c2sccc2SCc2ccnc(N)n2)c1 [Compound 1-20, 3-(2-Aminopyrimidin-4-ylmethylthio)-N-(3,5-dimethylphenyl) thiophene-2-carboxamide]	100%
O=C(Nc1cccc(C(F)(F)F)c1)c1cccnc1SCc1ccnc(N2CCNCC2)n1 [Compound 4-36, 2-[2-(piperazin-1-yl)pyrimidin-4-ylmethylthio]-N-(3-trifluorophenyl)pyridine-3-carboxamide]	100%

Same assay, conditions: Homo sapiens, 72 h, 20 μg/mL test compound solution, 5 μL per well, WST-8 three days after VEGF addition, absorbance at 450 nm, control 1.0% DMSO, read-out: Cell proliferation inhibition rate (%)

SMILES	inhibition at 20 µg/mL (stock)
Cc1cc(C)cc(NC(=O)c2cccnc2SCc2ccnc(N)n2)c1 [Compound 1-1, 2-(2-Aminopyrimidin-4-ylmethylthio)-N-(3,5-dimethylphenyl)pyridine-3-carboxamide]	96%
CC(C)c1cccc(NC(=O)c2cccnc2SCc2ccnc(N)n2)c1 [Compound 1-7, 2-(2-Aminopyrimidin-4-ylmethylthio)-N-(3-isopropylphenyl)pyridine-3-carboxamide]	96%
Nc1nccc(CSc2ncccc2C(=O)Nc2cc3ccccc3cn2)n1 [Compound 1-12, 2-(2-Aminopyrimidin-4-ylmethylthio)-N-(isoquinolin-3-yl)pyridine-3-carboxamide]	84%
Cc1cc(C)cc(NC(=O)c2ccccc2SCc2ccnc(N)n2)c1 [Compound 1-16, 2-(2-Aminopyrimidin-4-ylmethylthio)-N-(3,5-dimethylphenyl)benzamide]	100%
Cc1cc(C)cc(NC(=O)c2cccnc2SCc2ccncn2)c1 [Compound 1-22, N-(3,5-Dimethylphenyl)-2-(pyrimidin-4-ylmethylthio)pyridine-3-carboxamide]	100%
CSc1nccc(CSc2ncccc2C(=O)Nc2cc(C)cc(C)c2)n1 [Compound 1-26, N-(3,5-Dimethylphenyl)-2-(2-methylthiopyrimidin-4-ylmethylthio)pyridine-3-carboxamide]	100%
CNc1nccc(CSc2ncccc2C(=O)Nc2cc(C)cc(C)c2)n1 [Compound 1-33, N-(3,5-Dimethylphenyl)-2-(2-methylaminopyrimidin-4-ylmethylthio)pyridine-3-carboxamide]	100%
CC(=O)Nc1nccc(CSc2ncccc2C(=O)Nc2cc(C)cc(C)c2)n1 [Compound 2-1, 2-(2-Acetylaminopyrimidin-4-ylmethylthio)-N-(3,5-dimethylphenyl)pyridine-3-carboxamide]	100%
CC(=O)Nc1nccc(CSc2ncccc2C(=O)Nc2ccc(Cl)cc2)n1 [Compound 2-2, 2-(2-Acetylaminopyrimidin-4-ylmethylthio)-N-(4-chlorophenyl)pyridine-3-carboxamide]	97%
CC(=O)Nc1nccc(CSc2ncccc2C(=O)Nc2ccc3c(c2)CCC3)n1 [Compound 2-4, 2-(2-Acetylaminopyrimidin-4-ylmethylthio)-N-(indan-5-yl)pyridine-3-carboxamide]	99%
CC(=O)N(C(C)=O)c1nccc(CSc2ncccc2C(=O)Nc2cc(C)cc(C)c2)n1 [Compound 3-1, 2-(2-Diacetylaminopyrimidin-4-ylmethylthio)-N-(3,5-dimethylphenyl)pyridine-3-carboxamide]	100%
Cc1cc(C)cc(NC(=O)c2cccnc2SCc2ccnc(NC3CC3)n2)c1 [Compound 4-1, 2-(2-Cyclopropylaminopyrimidin-4-ylmethylthio)-N-(3,5-dimethylphenyl)pyridine-3-carboxamide]	100%
Cc1cc(C)cc(NC(=O)c2cccnc2SCc2ccnc(N3CCOCC3)n2)c1 [Compound 4-4, N-(3,5-Dimethylphenyl)-2-(2-morpholinopyrimidin-4-ylmethylthio)pyridine-3-carboxamide]	100%
O=C(Nc1ccc(OC(F)(F)F)cc1)c1cccnc1SCc1ccnc(NC2CC2)n1 [Compound 4-6, 2-(2-Cyclopropylaminopyrimidin-4-ylmethylthio)-N-(4-trifluoromethoxyphenyl)pyridine-3-carboxamide]	100%
O=C(Nc1cccc(C(F)(F)F)c1)c1cccnc1SCc1ccnc(NC2CC2)n1 [Compound 4-9, 2-(2-Cyclopropylaminopyrimidin-4-ylmethylthio)-N-(3-trifluoromethylphenyl)pyridine-3-carboxamide]	100%
Cc1cc(C)cc(NC(=O)c2cccnc2SCc2ccnc(NCCO)n2)c1 [Compound 4-19, N-(3,5-Dimethylphenyl)-2-[2-(2-hydroxyethyl)aminopyrimidin-4-ylmethylthio]pyridine-3-carboxamide]	100%
CCOCCNc1nccc(CSc2ncccc2C(=O)Nc2ccc(OC(F)(F)F)cc2)n1 [Compound 4-22, 2-[2-(2-Ethoxyethyl)aminopyrimidin-4-ylmethylthio]-N-(4-trifluoromethoxyphenyl)pyridine-3-carboxamide]	100%
Cc1cc(C)cc(NC(=O)c2cccnc2SCc2ccnc(N3CCN(CCO)CC3)n2)c1 [Compound 4-25, N-(3,5-Dimethylphenyl)-2-[2-(4-(2-hydroxyethyl)piperazin-1-yl)pyrimidin-4-ylmethylthio]pyridine-3-carboxamide]	100%

Source: patent US8507485B2, “Cyclic compound having pyrimidinylalkylthio group” (Santen Pharmaceutical Co., Ltd., priority 2005, dated 2013)
